Source: patent publication US7012090B1, “Pyranoindoles for treating glaucoma” (Alcon, Inc., priority 2000, dated 2006)
Counter-ions that a name gives are not always drawn.

Key:
5-HT2 receptor = molecular target: T1, 5-HT2 receptor (Rattus norvegicus, UniProt P14842); test: 5-HT2 Functional Assay: Phosphoinositide (PI) Turnover Assay; format: cell-based; details: for EC50: [3H]inositol phosphate production in A7r5 rat vascular smooth muscle cells; for Emax: A7r5 cells, relative to 5-HT set at 100%, read-out: Efficacy (Emax, %)
T1 construct: [^3H]myo-inositol-labeled A7r5 rat vascular smooth muscle cells; endogenous in cells; host or cells: A7r5 rat vascular smooth muscle cells
T1 sequence (P14842 whole entry): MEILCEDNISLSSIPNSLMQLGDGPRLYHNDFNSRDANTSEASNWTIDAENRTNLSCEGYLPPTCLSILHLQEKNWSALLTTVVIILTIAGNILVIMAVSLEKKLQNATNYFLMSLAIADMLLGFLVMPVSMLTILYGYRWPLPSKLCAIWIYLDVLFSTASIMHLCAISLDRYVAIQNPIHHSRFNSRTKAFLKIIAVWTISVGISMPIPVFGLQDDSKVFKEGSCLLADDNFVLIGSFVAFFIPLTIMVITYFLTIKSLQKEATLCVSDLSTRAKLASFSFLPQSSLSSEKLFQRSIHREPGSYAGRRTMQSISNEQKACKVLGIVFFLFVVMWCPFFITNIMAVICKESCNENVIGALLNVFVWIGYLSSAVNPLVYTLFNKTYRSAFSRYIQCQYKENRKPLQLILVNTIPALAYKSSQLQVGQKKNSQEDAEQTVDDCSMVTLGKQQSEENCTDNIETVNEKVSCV
Protocol: 5-HT2 Functional Assay: Phosphoinositide (PI) Turnover Assay
The relative agonist activity of serotonergic compounds at the 5-HT2 receptor can be determined in vitro using the ability of the compounds to stimulate the production of [^3H]inositol phosphates in [^3H]myo-inositol-labeled A7r5 rat vascular smooth muscle cells by their ability to activate the enzyme phospholipase C. These cells are grown in culture plates, maintained in a humidified atmosphere of 5% CO2 and 95% air and fed semi-weekly with Dulbecco's modified Eagle medium (DMEM) containing 4.5 g/l glucose and supplemented with 2 mM glutamine, 10 μg/ml gentamicin, and 10% fetal bovine serum. For the purpose of conducting the phosphoinositide (PI) turnover experiments, the A7r5 cells are cultured in 24-well plates as previously [J. Pharmacol. Expt. Ther., 286, 411 (1998)]. Confluent cells are exposed for 24-30 hrs to 1.5 μCi [^3H]-myo-inositol (18.3 Ci/mmol) in 0.5 ml of serum-free medium. Cells are then rinsed once with DMEM/F-12 containing 10 mM LiCl prior to incubation with the test agent (or solvent as the control) in 1.0 ml of the same medium for 1 hr at 37° C., after which the medium is aspirated and 1 ml of cold 0.1 M formic acid added to stop the reaction. The chromatographic separation of [^3H]-inositol phosphates ([^3H]-IPs) on an AG- 1-X8 column is performed as previously described [J. Pharmacol. Expt. Ther. 286, 411 (1998)] with sequential washes with H2O and 50 mM ammonium formate, followed by elution of the total [^3H]-IPs fraction with 1.2 M ammonium formate containing 0.1 M formic acid. The eluate (4 ml) is collected, mixed with 15 ml scintillation fluid, and the total [^3H]-IPs determined by scintillation counting on a beta-counter. Concentration-response data are analyzed by the sigmoidal fit function of the Origin Scientific Graphics software (Microcal Software, Northampton, Mass.) to determine agonist potency (EC50 value) and efficacy (Emax). Serotonin (5-HT) is used as a positive control (standard) agonist compound and the efficacy of test compounds is compared to that of 5-HT (set at 100%). The concentration of the compound needed to stimulate the production of [^3H]-IPs by 50% of the maximum response is termed the EC50 value.

brain 5-HT2 receptors = brain 5-HT2 receptors (Rattus norvegicus, UniProt P14842); test: 5HT2 Receptor Binding Assay ([125I]DOI competition); details: inhibition of [125I]DOI binding, rat or human cerebral cortex homogenates
brain 5-HT2 receptors, sequence (P14842 whole entry): as above
Protocol: 5HT2 Receptor Binding Assay
Aliquots of post mortem rat or human cerebral cortex homogenates (400 μl) dispersed in 50 mM TrisHCl buffer (pH 7.4) are incubated with [^125I]DOI (80 pM final) in the absence or presence of methiothepin (10 μM final) to define total and non-specific binding, respectively, in a total volume of 0.5 ml. The assay mixture is incubated for 1 hour at 23° C. in polypropylene tubes and the assays terminated by rapid vacuum filtration over Whatman GF/B glass fiber filters previously soaked in 0.3% polyethyleneimine using ice-cold buffer. Test compounds (at different concentrations) are substituted for methiothepin. Filter-bound radioactivity is determined by scintillation spectrometry on a beta counter. The data are analyzed using a non-linear, iterative curve-fitting computer program [Trends Pharmacol. Sci., 16, 413 (1995)] to determine the compound affinity parameter. The concentration of the compound needed to inhibit the [^125I]DOI binding by 50% of the maximum is termed the IC50 value.

[1] = tested on: Lasered (Hypertensive) Eyes of Conscious Cynomolgus Monkeys; test: Acute IOP Response in Lasered (Hypertensive) Eyes of Conscious Cynomolgus Monkeys; format: in vivo, Cynomolgus monkey; details: lasered eye
Protocol: Acute IOP Response in Lasered (Hypertensive) Eyes of Conscious Cynomolgus Monkeys
Intraocular pressure (IOP) was determined with an Alcon Pneumatonometer after light corneal anesthesia with 0.1% proparacaine. Eyes were washed with saline after each measurement. After a baseline IOP measurement, test compound was instilled in one 30 μL aliquot to the right eyes only of nine cynomolgus monkeys. Vehicle was instilled in the right eyes of six additional animals. Subsequent IOP measurements were taken at 1, 3, and 6 hours. A compound is considered efficacious in this model of ocular hypertension if there is a decrease in the baseline IOP of the lasered eye (O.D.) of at least 20% following topical administration.

[2] = 1 hour after dose, 300 μg topical
[3] = 3 hours after dose, 300 μg topical
[4] = 6 hours after dose, 300 μg topical

SMILES | EC50 (5-HT2 receptor) [nM] | IC50 (brain 5-HT2 receptors) [nM] | Percent IOP Reduction ± SEM ([1]; 1 hour after dose, 100 μg topical) [%] | Percent IOP Reduction ± SEM ([1]; 3 hours after dose, 100 μg topical) [%] | Percent IOP Reduction ± SEM ([1]; 6 hours after dose, 100 μg topical) [%] | melting point [°C] | Emax (5-HT2 receptor) [%] | Percent IOP Reduction ± SEM [1, 2] [%] | Percent IOP Reduction ± SEM [1, 3] [%] | Percent IOP Reduction ± SEM [1, 4] [%]
COc1cc(C[C@@H](C)N)c(OC)cc1I [(R)-DOI, reference compound] | 27.7 | 0.46 | 11.0 ± 4.98 | 25.3 ± 2.97 | 34.4 ± 4.98 | – | – | – | – | –
CC(N)Cc1cn(C)c2ccc3c(c12)CCCO3 (stereo not drawn) (as salt: hydrochloride) [Example 1, 1-Methyl-2-(3-methyl3,7,8,9-tetrabydro-pyrano[3,2-e]indol-1-yl)-ethylamine hydrochloride] | – | – | – | – | – | 214 to 217 | – | – | – | –
C[C@@H](N)Cc1c[nH]c2ccc3c(c12)CCCO3 [Example 4, (R)-1-Methyl-2-(3,7,8,9-tetrahydro-pyrano[3,2-e]indol-1-yl)ethylamine hydrochloride] | 111 | – | – | – | – | – | 109 | – | – | –
CC(N)Cc1c[nH]c2ccc3c(c12)CC(O)CO3.Cl (stereo not drawn) [Example 6, 1-(2-Aminopropyl)-3,7,8,9-tetrahydro-pyrano[3,2-e]indol-8-ol hydrochloride] | 300 | – | – | – | – | 187 to 192 | 92 | – | – | –
CC(N)Cc1c[nH]c2ccc3c(c12)CCCO3.Cl (stereo not drawn) [Example 3, 1-Methyl-2-(3,7,8,9-tetrahydro-pyrano[3,2-e]indol-1-yl)-ethylamine hydrochloride] | 116 | – | – | – | – | – | 81 | 16.0 ± 3.79 | 28.0 ± 5.49 | 22.9 ± 6.70
CC(N)Cc1cn(C)c2ccc3c(c12)CCCO3 (stereo not drawn) [Example 1, 1-Methyl-2-(3-methyl3,7,8,9-tetrabydro-pyrano[3,2-e]indol-1-yl)-ethylamine hydrochloride] | 189 | – | – | – | – | – | 119 | 18.8 ± 3.31 | 28.0 ± 5.20 | 26.1 ± 5.35
